The target of experiment [1] is Myosin light chain kinase, smooth muscle (Homo sapiens, UniProt Q15746).
Experiment [2] addresses T1, DNA replication licensing factor MCM4 (Homo sapiens, UniProt P33991).
T1 sequence (P33991 whole entry): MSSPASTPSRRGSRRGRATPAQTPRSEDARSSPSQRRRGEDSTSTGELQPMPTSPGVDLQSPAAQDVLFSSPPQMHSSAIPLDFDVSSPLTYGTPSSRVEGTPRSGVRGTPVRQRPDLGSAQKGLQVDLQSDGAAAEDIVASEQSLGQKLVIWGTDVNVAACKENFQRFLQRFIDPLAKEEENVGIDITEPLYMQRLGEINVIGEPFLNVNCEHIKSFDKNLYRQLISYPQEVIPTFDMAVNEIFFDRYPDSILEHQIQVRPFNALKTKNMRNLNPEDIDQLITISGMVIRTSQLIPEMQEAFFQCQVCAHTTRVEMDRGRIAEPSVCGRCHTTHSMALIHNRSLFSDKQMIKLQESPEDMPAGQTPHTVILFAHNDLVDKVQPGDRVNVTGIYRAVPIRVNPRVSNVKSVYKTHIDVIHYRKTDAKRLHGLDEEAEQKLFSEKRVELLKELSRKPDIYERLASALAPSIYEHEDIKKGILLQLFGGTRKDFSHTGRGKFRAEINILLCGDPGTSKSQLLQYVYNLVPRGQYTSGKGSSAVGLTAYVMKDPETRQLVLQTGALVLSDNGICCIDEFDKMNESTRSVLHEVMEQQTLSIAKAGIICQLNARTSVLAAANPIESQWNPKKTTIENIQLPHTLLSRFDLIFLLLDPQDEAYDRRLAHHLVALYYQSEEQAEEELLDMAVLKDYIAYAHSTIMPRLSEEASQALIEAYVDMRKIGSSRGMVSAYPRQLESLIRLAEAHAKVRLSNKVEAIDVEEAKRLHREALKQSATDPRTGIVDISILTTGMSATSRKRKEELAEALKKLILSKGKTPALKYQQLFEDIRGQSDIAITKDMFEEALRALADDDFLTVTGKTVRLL

Another experiment has as its target T2, Septin-9 (Homo sapiens, UniProt Q9UHD8).
T2 sequence (Q9UHD8 whole entry): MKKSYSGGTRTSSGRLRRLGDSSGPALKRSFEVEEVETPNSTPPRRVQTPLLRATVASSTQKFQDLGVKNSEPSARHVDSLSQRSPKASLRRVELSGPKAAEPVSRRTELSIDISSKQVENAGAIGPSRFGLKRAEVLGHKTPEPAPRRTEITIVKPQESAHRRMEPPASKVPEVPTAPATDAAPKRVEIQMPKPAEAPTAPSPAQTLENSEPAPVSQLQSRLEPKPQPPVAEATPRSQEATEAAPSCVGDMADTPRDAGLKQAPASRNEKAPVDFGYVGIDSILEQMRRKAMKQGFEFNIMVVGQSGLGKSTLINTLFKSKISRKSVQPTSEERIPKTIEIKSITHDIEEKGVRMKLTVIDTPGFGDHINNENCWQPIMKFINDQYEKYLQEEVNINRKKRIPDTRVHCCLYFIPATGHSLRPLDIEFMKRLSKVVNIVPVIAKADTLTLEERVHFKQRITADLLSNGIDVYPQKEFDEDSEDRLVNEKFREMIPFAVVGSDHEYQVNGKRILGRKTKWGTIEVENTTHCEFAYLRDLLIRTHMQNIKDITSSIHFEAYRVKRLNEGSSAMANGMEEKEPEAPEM

Experiment [3] deals with T3, Long-chain-fatty-acid--CoA ligase 5 (Homo sapiens, UniProt Q9ULC5).
T3 sequence (Q9ULC5 whole entry): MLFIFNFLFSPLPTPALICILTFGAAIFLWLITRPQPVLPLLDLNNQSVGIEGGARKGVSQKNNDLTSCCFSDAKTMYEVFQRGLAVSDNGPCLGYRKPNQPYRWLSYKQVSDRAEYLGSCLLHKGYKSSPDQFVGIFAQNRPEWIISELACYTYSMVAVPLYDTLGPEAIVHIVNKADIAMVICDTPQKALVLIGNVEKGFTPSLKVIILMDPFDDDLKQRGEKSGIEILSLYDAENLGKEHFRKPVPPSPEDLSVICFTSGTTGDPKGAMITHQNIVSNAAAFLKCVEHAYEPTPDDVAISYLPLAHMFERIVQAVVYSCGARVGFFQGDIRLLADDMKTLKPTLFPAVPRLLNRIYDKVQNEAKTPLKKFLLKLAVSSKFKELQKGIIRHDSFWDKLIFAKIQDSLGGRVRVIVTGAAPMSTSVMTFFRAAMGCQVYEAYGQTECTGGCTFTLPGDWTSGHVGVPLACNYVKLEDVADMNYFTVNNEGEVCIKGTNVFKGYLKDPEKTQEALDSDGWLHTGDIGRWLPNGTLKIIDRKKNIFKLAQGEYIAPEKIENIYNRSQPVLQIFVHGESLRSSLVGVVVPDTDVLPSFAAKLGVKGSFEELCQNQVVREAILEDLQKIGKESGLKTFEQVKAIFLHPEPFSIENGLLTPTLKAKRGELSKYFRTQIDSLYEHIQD

Experiment [4] has as its target T4, Probable ATP-dependent RNA helicase DDX6 (Homo sapiens, UniProt P26196).
T4 sequence (P26196 whole entry): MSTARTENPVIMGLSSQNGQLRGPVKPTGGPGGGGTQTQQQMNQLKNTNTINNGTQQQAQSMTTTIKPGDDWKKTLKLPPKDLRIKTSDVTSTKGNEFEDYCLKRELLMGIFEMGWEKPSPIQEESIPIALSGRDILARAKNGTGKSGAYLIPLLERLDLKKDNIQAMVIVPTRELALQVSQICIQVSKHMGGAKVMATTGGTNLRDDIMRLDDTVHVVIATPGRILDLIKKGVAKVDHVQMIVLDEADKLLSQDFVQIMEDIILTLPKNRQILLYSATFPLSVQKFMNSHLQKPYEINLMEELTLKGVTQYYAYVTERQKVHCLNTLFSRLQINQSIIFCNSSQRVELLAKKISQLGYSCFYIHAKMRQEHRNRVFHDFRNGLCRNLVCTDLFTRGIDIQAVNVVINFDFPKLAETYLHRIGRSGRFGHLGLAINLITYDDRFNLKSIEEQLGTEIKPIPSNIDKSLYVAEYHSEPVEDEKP

Calls of active or inactive are those of the source. On the calls: in the data inactive means no Kd found up to 30 µM.

In general, Kd refers to the free concentration of one partner at which half of the binding sites on the other are occupied at equilibrium, for simple one-to-one binding.

Sequence of Myosin light chain kinase, smooth muscle (Q15746 whole entry): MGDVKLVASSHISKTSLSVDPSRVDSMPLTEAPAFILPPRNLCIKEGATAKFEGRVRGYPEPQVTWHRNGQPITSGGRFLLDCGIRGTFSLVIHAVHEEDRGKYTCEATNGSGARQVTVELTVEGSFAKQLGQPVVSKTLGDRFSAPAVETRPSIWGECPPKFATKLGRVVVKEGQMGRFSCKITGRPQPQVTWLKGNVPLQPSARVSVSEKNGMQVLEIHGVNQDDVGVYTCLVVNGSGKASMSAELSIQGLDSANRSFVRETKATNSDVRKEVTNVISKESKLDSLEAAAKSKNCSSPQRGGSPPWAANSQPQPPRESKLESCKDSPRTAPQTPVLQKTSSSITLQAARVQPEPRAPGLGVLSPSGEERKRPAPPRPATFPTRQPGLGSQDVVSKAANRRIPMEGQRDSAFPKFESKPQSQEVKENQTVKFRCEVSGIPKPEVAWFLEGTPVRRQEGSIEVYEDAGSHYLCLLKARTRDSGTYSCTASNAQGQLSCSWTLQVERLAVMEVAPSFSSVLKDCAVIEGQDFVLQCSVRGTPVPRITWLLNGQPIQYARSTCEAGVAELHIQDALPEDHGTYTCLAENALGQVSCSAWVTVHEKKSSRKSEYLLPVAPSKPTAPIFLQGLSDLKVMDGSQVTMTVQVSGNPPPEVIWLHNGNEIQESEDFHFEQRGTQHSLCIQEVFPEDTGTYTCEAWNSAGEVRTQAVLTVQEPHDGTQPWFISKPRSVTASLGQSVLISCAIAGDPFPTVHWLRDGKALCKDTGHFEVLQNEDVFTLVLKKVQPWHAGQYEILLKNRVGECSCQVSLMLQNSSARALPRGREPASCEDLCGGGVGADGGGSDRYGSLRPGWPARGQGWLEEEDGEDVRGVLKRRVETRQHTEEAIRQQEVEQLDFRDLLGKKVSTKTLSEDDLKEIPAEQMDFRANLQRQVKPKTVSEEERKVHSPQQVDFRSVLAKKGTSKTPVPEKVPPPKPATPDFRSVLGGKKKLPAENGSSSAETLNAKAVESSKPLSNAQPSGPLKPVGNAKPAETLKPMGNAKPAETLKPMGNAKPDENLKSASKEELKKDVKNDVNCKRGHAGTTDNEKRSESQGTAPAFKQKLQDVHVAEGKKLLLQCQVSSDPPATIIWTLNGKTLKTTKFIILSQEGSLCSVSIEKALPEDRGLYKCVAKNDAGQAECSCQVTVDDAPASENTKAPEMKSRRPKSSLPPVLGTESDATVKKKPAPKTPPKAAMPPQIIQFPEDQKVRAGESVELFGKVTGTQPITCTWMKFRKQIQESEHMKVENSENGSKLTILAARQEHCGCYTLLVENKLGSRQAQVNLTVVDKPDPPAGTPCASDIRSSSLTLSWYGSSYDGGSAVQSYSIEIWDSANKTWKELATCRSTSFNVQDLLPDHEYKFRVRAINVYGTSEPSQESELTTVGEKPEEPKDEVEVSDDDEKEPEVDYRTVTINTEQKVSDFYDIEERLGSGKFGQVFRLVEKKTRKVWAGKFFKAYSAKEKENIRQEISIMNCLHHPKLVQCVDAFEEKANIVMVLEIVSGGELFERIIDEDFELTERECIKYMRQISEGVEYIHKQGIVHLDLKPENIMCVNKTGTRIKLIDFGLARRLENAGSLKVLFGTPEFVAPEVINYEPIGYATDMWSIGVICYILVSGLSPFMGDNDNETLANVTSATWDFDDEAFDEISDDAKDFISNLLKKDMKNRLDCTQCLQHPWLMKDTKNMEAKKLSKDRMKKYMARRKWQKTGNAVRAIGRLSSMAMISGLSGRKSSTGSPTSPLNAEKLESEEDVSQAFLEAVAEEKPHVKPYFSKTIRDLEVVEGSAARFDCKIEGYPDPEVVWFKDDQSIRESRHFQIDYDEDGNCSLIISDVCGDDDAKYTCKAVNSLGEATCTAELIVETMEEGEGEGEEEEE

For `C#Cc1cccc(Nc2ncnc3cc4c(cc23)OCCOCCOCCO4)c1` [ICOTINIB], the Kd (in experiment [1]; in experiment [2]; on Septin-9; in experiment [3]; in experiment [4]) was > 30 µM (inactive) in each case.

On to `C=CCn1c(=O)c2cnc(Nc3ccc(N4CCN(C)CC4)cc3)nc2n1-c1cccc(C(C)(C)O)n1` [ADAVOSERTIB], for which the Kd (in experiment [1]; in experiment [2]; at Septin-9; in experiment [3]; in experiment [4]) was > 30 µM (inactive) throughout.

For the compound `COc1cc(F)c(F)c(Nc2ccc(I)cc2F)c1NS(=O)(=O)C1(C[C@H](O)CO)CC1` [REFAMETINIB], the Kd (in experiment [1]; in experiment [2]; at Septin-9; in experiment [3]; in experiment [4]) was > 30 µM (inactive) each time.

As to `CCOc1ccn(-c2ccc(F)cc2)c(=O)c1C(=O)Nc1ccc(Oc2ccnc(N)c2Cl)c(F)c1` [BMS-777607], the Kd (in experiment [1]; in experiment [2]; at Septin-9; in experiment [3]; in experiment [4]) was > 30 µM (inactive) throughout.

Turning to `O[C@H]1CC[C@H](Nc2ncc3nc(Nc4c(F)cc(F)cc4F)n([C@H]4CCOC4)c3n2)CC1` [TANZISERTIB], the Kd was 2.63 µM in experiment [1]; > 30 µM (inactive) in experiment [2]; > 30 µM (inactive) at Septin-9; > 30 µM (inactive) in experiment [3]; > 30 µM (inactive) in experiment [4].

For `FC(F)(F)c1ccc(CNc2ccc(Cc3c[nH]c4ncc(Cl)cc34)cn2)cn1` [PEXIDARTINIB], the Kd (in experiment [1]; in experiment [2]; on Septin-9; in experiment [3]; in experiment [4]) was > 30 µM (inactive) each time.

For the compound `CNC(=O)c1cc(COc2nnc(Nc3ccc(Cl)cc3)c3ccoc23)ccn1` [TELATINIB], the Kd (in experiment [1]; in experiment [2]; on Septin-9; in experiment [3]; in experiment [4]) was > 30 µM (inactive) each time.

As to `COc1cc2ncnc3c2cc1OCCCCCN(C)Cc1ccc(Br)cc1N3` [JNJ-26483327], the Kd (in experiment [1]; in experiment [2]; on Septin-9; in experiment [3]; in experiment [4]) was > 30 µM (inactive) each time.

As to `CNC(=O)c1cccc(-c2ccc3c(N4CCOC[C@@H]4C)nc(N4CCOC[C@@H]4C)nc3n2)c1` [VISTUSERTIB], the Kd (in experiment [1]; in experiment [2]; on Septin-9; in experiment [3]; in experiment [4]) was > 30 µM (inactive) each time.

On to `CC1(COc2ccc3c(c2)ncn3-c2ccc3cccc(N4CCC(N)CC4)c3n2)COC1` [CRENOLANIB], for which the Kd (in experiment [1]; in experiment [2]; on Septin-9; in experiment [3]; in experiment [4]) was > 30 µM (inactive) in each case.

As for `O=S(=O)(c1cccc2cnccc12)N1CCCNCC1` [FASUDIL], the Kd (in experiment [1]; in experiment [2]; on Septin-9; in experiment [3]; in experiment [4]) was > 30 µM (inactive) throughout.

On to `NC(=O)c1ccc(N(C(N)=O)c2c(F)cccc2F)nc1-c1ccc(F)cc1F` [VX-702], for which the Kd in experiment [1] was 0.003 µM; in experiment [2], > 30 µM (inactive); at Septin-9, > 30 µM (inactive); in experiment [3], > 30 µM (inactive); in experiment [4] it was > 30 µM (inactive).

Turning to `Cc1cc(-c2cc(OC(=O)c3ccccc3)ccc2Cl)cc2nnc(Nc3ccc(OCCN4CCCC4)cc3)nc12` [TG100-801], the Kd (in experiment [1]; in experiment [2]; on Septin-9; in experiment [3]; in experiment [4]) was > 30 µM (inactive) each time.

For the compound `O=C(Nc1ccc(OC(F)(F)F)cc1)c1sccc1NCc1ccnc2ccccc12` [OSI-930], the Kd (in experiment [1]; in experiment [2]; on Septin-9; in experiment [3]; in experiment [4]) was > 30 µM (inactive) each time.

Regarding `CNC(=O)c1ccc(Nc2ncc(C(F)(F)F)c(NCc3nccnc3N(C)S(C)(=O)=O)n2)cc1` [DEFACTINIB], the Kd (in experiment [1]; in experiment [2]; at Septin-9; in experiment [3]; in experiment [4]) was > 30 µM (inactive) throughout.

Take `Cc1cc(C(=O)Nc2cc(Oc3ccc4nc(NC(=O)C5CC5)cn4n3)ccc2C)n(C)n1` [TAK-593]: the Kd (in experiment [1]; in experiment [2]; on Septin-9; in experiment [3]; in experiment [4]) was > 30 µM (inactive) throughout.

In the case of `CCN(CCCOc1ccc2c(Nc3cc(CC(=O)Nc4cccc(F)c4)n[nH]3)ncnc2c1)CCOP(=O)(O)O` [BARASERTIB], the Kd (in experiment [1]; in experiment [2]; on Septin-9; in experiment [3]; in experiment [4]) was > 30 µM (inactive) throughout.

`N#CCNC(=O)c1ccc(-c2ccnc(Nc3ccc(N4CCOCC4)cc3)n2)cc1` [MOMELOTINIB]: the Kd (in experiment [1]; in experiment [2]; at Septin-9; in experiment [3]; in experiment [4]) was > 30 µM (inactive) throughout.

With `c1cc(OCCN2CCCCC2)cc(-c2n[nH]c3ccc(-c4nc[nH]n4)cc23)c1` [CC-401], the Kd (in experiment [1]; in experiment [2]; on Septin-9; in experiment [3]; in experiment [4]) was > 30 µM (inactive) in each case.

These data come from ChEMBL document CHEMBL3991601, “The target landscape of clinical kinase drugs” (Science, 2017).
